Earlier results on 1 molecule are cited in US11167065B2 (EUROCOR TECH GMBH, priority 2009, dated 2021).

Where two headings read alike, the source gives them in different places.

Turning to `CC(=O)O[C@H]1C(=O)[C@@]2(C)[C@H]([C@H](OC(=O)c3ccccc3)[C@]3(O)C[C@H](OC(=O)[C@H](O)[C@@H](NC(=O)c4ccccc4)c4ccccc4)C(C)=C1C3(C)C)[C@]1(OC(C)=O)CO[C@@H]1C[C@@H]2O` (relative stereo) [Paclitaxel, [2aR-[2a,4,4a,6,9(R*,S*),11,12,12a,12b]]-(benzoylamino)-hydroxybenzene propionic acid 6,12b-bis-(acetyloxy)-12-(benzoyloxy)-2a-3,4,4a, 5,6,9, 10, 11, 12, 12a, 12b-dodecahydro-4,11-dihydroxy-4a,8,13,13-tetramethyl-5-oxo-7,11-methano-1H-cyclodeca[3,4]benz[1,2-b]oxet-9-yl ester)], the Solubility result (in dimethyl sulfoxide (DMSO), methanol, anhydrous ethanol) is “highly soluble” and the Solubility entry (in water) is “comparatively poorly soluble”.
